The values that follow are results of earlier work, collected in patent US20040053948A1, “Compounds, compositions and methods” (Cytokinetics, Inc., priority 2002, published 2004).

The data set concerns A549 cells. The note with it: data provided by National Cancer Institute, Developmental Therapeutic Program.

For orientation: GI50 means the concentration at which growth is held to half of that of the control. Turning to `NC(=O)NO` [hydroxyurea], the GI50 was 500000 nM.
With `O=c1[nH]cc(F)c(=O)[nH]1` [5-fluorouracil], the GI50 was 1000 nM.
Take `CC(=O)O[C@H]1C(=O)[C@@]2(C)[C@H]([C@H](OC(=O)c3ccccc3)[C@]3(O)C[C@H](OC(=O)[C@H](O)[C@@H](NC(=O)c4ccccc4)c4ccccc4)C(C)=C1C3(C)C)[C@]1(OC(C)=O)CO[C@@H]1C[C@@H]2O` [paclitaxel]: the GI50 was 4 nM.
Turning to `COc1cccc2c1C(=O)c1c(O)c3c(c(O)c1C2=O)C[C@@](O)(C(=O)CO)C[C@@H]3O[C@H]1C[C@H](N)[C@H](O)[C@H](C)O1` [doxorubicin], the GI50 was 63 nM.
